Results on 22 compounds are retold here after patent publication US7087642B2 (priority 1999, dated 2006).

The subject of one assay is human PBMC T cells. Nature of the assay: cells. It counts as cell-based. The conditions noted are these: read-out: T-cells (IC50).
The next assay concerns the target IMPDH human type II (Homo sapiens, UniProt P12268). Put plainly: biochemical. The following applies: read-out: Ki.
The subject of the next assay is human PBMC B cells. Put plainly: cells. It counts as cell-based. The following applies: read-out: B-cells (IC50).

Read-outs that look alike come from different tables or passages of the source. Bounds are passed on as bounds.

With `COc1cc(NC(=O)Nc2cccc(CNC(=O)OCCC#N)c2)ccc1-c1cnco1` [Compound 1], the IC50 in the assay with human PBMC T cells (Homo sapiens, 72 h) is 100 to 1000 nM; in the assay with human PBMC B cells (Homo sapiens, 72 h), below 100 nM. Besides, the inhibition constant Ki on IMPDH human type II is below 10 nM.

For `COc1cc(NC(=O)Nc2cccc(CNC(=O)OCCOCCC#N)c2)ccc1-c1cnco1` [Compound 2], the IC50 with human PBMC T cells (Homo sapiens, 72 h) was 100 to 1000 nM; in the assay with human PBMC B cells (Homo sapiens, 72 h), 100 to 1000 nM. In addition, on IMPDH human type II, the inhibition constant (Ki) is below 10 nM.

Take `COc1cc(NC(=O)Nc2cccc(CNC(=O)OCCN(C)CCC#N)c2)ccc1-c1cnco1` [Compound 3]: the IC50 in the assay with human PBMC T cells (Homo sapiens, 72 h) fell in the range of 100 to 1000 nM; in the assay with human PBMC B cells (Homo sapiens, 72 h), 100 to 1000 nM. Besides, the Ki on IMPDH human type II is below 10 nM.

As to `COc1cc(NC(=O)Nc2cccc(CNC(=O)OCC(OCc3ccco3)N(CCC#N)CC(C)C)c2)ccc1-c1cnco1` (stereo not drawn) [Compound 4], the IC50 in the assay on human PBMC T cells (Homo sapiens, 72 h) is above 1000 nM; in the assay with human PBMC B cells (Homo sapiens, 72 h), above 1000 nM. Moreover, the Ki at IMPDH human type II is below 10 nM.

With `COc1cc(NC(=O)Nc2cccc(CNC(=O)OC[C@@H](N)CC#N)c2)ccc1-c1cnco1` [Compound 5], the IC50 in the assay on human PBMC T cells (Homo sapiens, 72 h) is above 1000 nM; with human PBMC B cells (Homo sapiens, 72 h) it was above 1000 nM. Besides, on IMPDH human type II, the Ki was below 10 nM.

As to `COc1cc(NC(=O)Nc2cccc(CNC(=O)OC[C@H](CC#N)N(C)C)c2)ccc1-c1cnco1` [Compound 6], the IC50 lay within 100 to 1000 nM in the assay with human PBMC T cells (Homo sapiens, 72 h) and 100 to 1000 nM in the assay on human PBMC B cells (Homo sapiens, 72 h). The Ki on IMPDH human type II was below 10 nM.

Take `COc1cc(NC(=O)Nc2cccc(CNC(=O)OCC(C)(C)CCC#N)c2)ccc1-c1cnco1` [Compound 7]: the IC50 is 100 to 1000 nM in the assay on human PBMC T cells (Homo sapiens, 72 h) and 100 to 1000 nM in the assay with human PBMC B cells (Homo sapiens, 72 h). For the same compound, on IMPDH human type II, the Ki was below 10 nM.

`CCC(CCC#N)COC(=O)NCc1cccc(NC(=O)Nc2ccc(-c3cnco3)c(OC)c2)c1` (stereo not drawn) [Compound 8]: the IC50 in the assay on human PBMC T cells (Homo sapiens, 72 h) is 100 to 1000 nM; in the assay with human PBMC B cells (Homo sapiens, 72 h), 100 to 1000 nM. Further, the Ki at IMPDH human type II is below 10 nM.

For the compound `COc1cc(NC(=O)Nc2cccc(CNC(=O)OC[C@H](N)CC#N)c2)ccc1-c1cnco1` [Compound 9], the half-maximal inhibitory concentration (IC50) with human PBMC T cells (Homo sapiens, 72 h) was in the range of 100 to 1000 nM; in the assay with human PBMC B cells (Homo sapiens, 72 h), 100 to 1000 nM. Moreover, at IMPDH human type II, the inhibition constant Ki is below 10 nM.

As for `COc1cc(NC(=O)Nc2cccc(CNC(=O)OC[C@H](CC#N)NC(=O)CC(C)(C)C)c2)ccc1-c1cnco1` [Compound 10], the IC50 with human PBMC T cells (Homo sapiens, 72 h) is 100 to 1000 nM; in the assay with human PBMC B cells (Homo sapiens, 72 h), above 1000 nM. The Ki on IMPDH human type II is below 10 nM.

In the case of `COc1cc(NC(=O)Nc2cccc(CNC(=O)OC(COC(C)C)CN(CCC#N)CC(C)C)c2)ccc1-c1cnco1` (stereo not drawn) [Compound 11], the IC50 in the assay on human PBMC T cells (Homo sapiens, 72 h) is above 1000 nM; in the assay on human PBMC B cells (Homo sapiens, 72 h), 100 to 1000 nM. In addition, the Ki on IMPDH human type II is below 10 nM.

`COc1cc(NC(=O)Nc2cccc(CNC(=O)OC[C@@H](CC#N)NC(=O)OC(C)(C)C)c2)ccc1-c1cnco1` [Compound 12]: the IC50 with human PBMC T cells (Homo sapiens, 72 h) lay within 100 to 1000 nM; in the assay on human PBMC B cells (Homo sapiens, 72 h), 100 to 1000 nM. Also, on IMPDH human type II, the Ki is below 10 nM.

Turning to `COc1cc(NC(=O)Nc2cccc(CNC(=O)OC(CC#N)CC#N)c2)ccc1-c1cnco1` [Compound 13], the half-maximal inhibitory concentration (IC50) with human PBMC T cells (Homo sapiens, 72 h) lay in the range of 100 to 1000 nM; in the assay on human PBMC B cells (Homo sapiens, 72 h), 100 to 1000 nM. For the same compound, the Ki on IMPDH human type II is below 10 nM.

`COc1cc(NC(=O)Nc2cccc(CNC(=O)OCCN(CCC#N)CCC#N)c2)ccc1-c1cnco1` [Compound 14]: the IC50 in the assay with human PBMC T cells (Homo sapiens, 72 h) was above 1000 nM; with human PBMC B cells (Homo sapiens, 72 h), 100 to 1000 nM. Moreover, the Ki on IMPDH human type II was below 10 nM.

For the compound `COc1cc(NC(=O)Nc2cccc(CNC(=O)OC[C@@H](CC#N)N(C)C)c2)ccc1-c1cnco1` [Compound 15], the IC50 with human PBMC T cells (Homo sapiens, 72 h) was in the range of 100 to 1000 nM; with human PBMC B cells (Homo sapiens, 72 h), 100 to 1000 nM. In addition, at IMPDH human type II, the inhibition constant (Ki) is below 10 nM.

As to `CCN(CC)C[C@@H](CC#N)OC(=O)NCc1cccc(NC(=O)Nc2ccc(-c3cnco3)c(OC)c2)c1` [Compound 16], the IC50 in the assay on human PBMC T cells and in the assay with human PBMC B cells was above 1000 nM throughout. Besides, the Ki at IMPDH human type II was below 10 nM.

For the compound `COc1cc(NC(=O)Nc2cccc(CNC(=O)O[C@H](CC#N)CN3CCOCC3)c2)ccc1-c1cnco1` [Compound 18], the IC50 in the assay with human PBMC T cells and with human PBMC B cells was above 1000 nM in each case. Besides, the Ki on IMPDH human type II was below 10 nM.

On to `CCN(CC)C[C@H](CC#N)OC(=O)NCc1cccc(NC(=O)Nc2ccc(-c3cnco3)c(OC)c2)c1` [Compound 19], for which the half-inhibitory concentration (IC50) in the assay with human PBMC T cells and in the assay with human PBMC B cells was 100 to 1000 nM each time. In addition, the Ki on IMPDH human type II was below 10 nM.

Turning to `COc1cc(NC(=O)Nc2cccc(CNC(=O)O[C@@H](CC#N)CN3CCOCC3)c2)ccc1-c1cnco1` [Compound 20], the IC50 in the assay on human PBMC T cells and in the assay on human PBMC B cells was 100 to 1000 nM each time. For the same compound, the Ki on IMPDH human type II is below 10 nM.

In the case of `COc1cc(NC(=O)Nc2cccc(CNC(=O)O[C@@H](CC#N)CN(C)C)c2)ccc1-c1cnco1` [Compound 22], the IC50 with human PBMC T cells (Homo sapiens, 72 h) is 100 to 1000 nM; in the assay with human PBMC B cells (Homo sapiens, 72 h), 100 to 1000 nM. In addition, the Ki at IMPDH human type II is below 10 nM.

For the compound `COc1cc(NC(=O)Nc2cccc(CNC(=O)O[C@H](CCl)CC#N)c2)ccc1-c1cnco1` [Compound 23], the IC50 in the assay on human PBMC T cells (Homo sapiens, 72 h) is below 100 nM; in the assay with human PBMC B cells (Homo sapiens, 72 h), below 100 nM. For the same compound, the Ki at IMPDH human type II is below 10 nM.

On to `COc1cc(NC(=O)Nc2cccc(CNC(=O)OCCCl)c2)ccc1-c1cnco1` [Compound 24], for which the concentration for half-maximal inhibition (IC50) in the assay on human PBMC T cells (Homo sapiens, 72 h) was above 1000 nM; in the assay on human PBMC B cells (Homo sapiens, 72 h), above 1000 nM. For the same compound, on IMPDH human type II, the Ki is below 10 nM.
